Measured values as given in patent US20090069302A1 (SMITHKLINE BEECHAM CORPORATION, priority 2006, published 2009).
pEC50: −log10 of the molar value. One block for each compound: values may come before it.

Columns and labels:
AXOR109 = target: T1, AXOR109 (Homo sapiens, UniProt Q8TDU6); assay: Human AXOR109/Melanophore Assay; format: cell-based; settings: melanophore assay; for Emax: 1 h, normalized to alpha-MSH system max; for pEC50: AXOR109 transfected melanophores
T1 construct: expressed in transfected cells; host or cells: melanophore cells, transfected by electroporation
T1 sequence (Q8TDU6 1-330): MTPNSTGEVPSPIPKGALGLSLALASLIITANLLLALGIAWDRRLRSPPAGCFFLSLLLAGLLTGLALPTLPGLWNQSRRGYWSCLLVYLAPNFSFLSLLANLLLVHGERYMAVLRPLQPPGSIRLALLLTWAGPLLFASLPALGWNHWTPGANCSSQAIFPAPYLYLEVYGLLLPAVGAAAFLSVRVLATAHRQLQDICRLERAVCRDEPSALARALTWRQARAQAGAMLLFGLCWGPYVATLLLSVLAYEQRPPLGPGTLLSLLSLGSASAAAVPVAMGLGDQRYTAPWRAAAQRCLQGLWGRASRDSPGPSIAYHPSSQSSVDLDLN
Outline: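 Readout is melanosome dispersion in melanophores electroporated with human AXOR109, in buffer containing 10 nM melatonin and 1% DMSO. Transmittance was read before and after 1 h compound exposure across 11-point 3-fold dilutions. Response was normalized to 200 nM alpha-MSH as system max, and pEC50 was obtained from a Hill fit.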

GK rats = assay: Effect on glucose, insulin and GLP-1 secretion in GK rats after oral glucose; format: in vivo, rat; parameters: Glucose changes / Insulin changes / GLP-1 changes: unit not given here; settings: for GLP-1 changes: active GLP-1, DPPIV inhibitor pretreated; for GLP-1 changes / Insulin changes / Glucose changes: 5 mg/kg intracolonic at −30 min, glucose 1 g/kg oral at 0 min; for Insulin changes: plasma; for Insulin changes / Glucose changes: DPPIV inhibitor pretreated; for Glucose changes: whole blood
Procedure: Eight week old conscious GK rats (four per group) were pretreated with a DPPIV inhibitor immediately after control blood sampling at −40 min (black arrow), and dosed with vehicle (0.5% HPMC/0.1% Tween80) or 5 mg/kg Example 14 through intracolonic injection at −30 time point (blue arrow). Glucose (1 g/kg) was given orally at 0 min. Blood samples were collected at −40, 0, 5, 15, 30, 60, 90 and 120 minutes after dosing. Whole blood glucose, plasma insulin, and active GLP-1 were measured (ELISA kits, LINCO). […] The results are listed in Tables 3a, 3b, and 3c, and graphically represented in FIGS. 2a, 2b, and 2c, respectively.

Compound: COc1ccc(S(=O)(=O)N(C)CCN(C)S(=O)(=O)c2ccc(OC)c(OC)c2)cc1OC [Example 14, N,N′-1,2-ethanediylbis[N-methyl-3,4-bis(methyloxy)benzenesulfonamide]]
Emax (AXOR109): 51 to 75%
pEC50 (AXOR109): > 6.90
active GLP-1 and insulin level compared to controls (GK rats; 5 mg/kg intracolonic, in words): higher level of active GLP-1 and insulin
glucose disposal compared to controls (GK rats; 5 mg/kg intracolonic, in words): improved glucose disposals
GLP-1 changes (GK rats; 0 min): 15.08
GLP-1 changes (GK rats; 15 min): 23.63
GLP-1 changes (GK rats; 30 min): 19.58
GLP-1 changes (GK rats; 60 min): 23.63
GLP-1 changes (GK rats; 90 min): 23.63
GLP-1 changes (GK rats; 120 min): 21.15
GLP-1 changes (GK rats; −40 min (before dosing)): 12.65
Insulin changes (GK rats; 0 min): 68.06
Insulin changes (GK rats; 15 min): 366.79
Insulin changes (GK rats; 30 min): 289.23
Insulin changes (GK rats; 60 min): 152.33
Insulin changes (GK rats; 90 min): 146.47
Insulin changes (GK rats; 120 min): 158.31
Insulin changes (GK rats; −40 min (before dosing)): 85.82
Glucose changes (GK rats; 0 min): 74.25
Glucose changes (GK rats; 15 min): 173.75
Glucose changes (GK rats; 30 min): 174.75
Glucose changes (GK rats; 60 min): 122.50
Glucose changes (GK rats; 90 min): 110.00
Glucose changes (GK rats; 120 min): 114.50
Glucose changes (GK rats; −40 min (before dosing)): 106.75

Compound: COc1ccc(S(=O)(=O)N(C)CCN(C2CC2)S(=O)(=O)c2ccc(OC)c(OC)c2)cc1OC [Example 88]
Emax (AXOR109): 76 to 100%
pEC50 (AXOR109): 6.00 to 6.90

Compound: COc1ccc(S(=O)(=O)N(CCN(C2CC2)S(=O)(=O)c2ccc(OC)c(OC)c2)C(C)C)cc1OC [Example 89]
Emax (AXOR109): 76 to 100%
pEC50 (AXOR109): 6.00 to 6.90

Compound: CCN(CCN(C1CC1)S(=O)(=O)c1ccc(OC)c(OC)c1)S(=O)(=O)c1ccc(OC)c(OC)c1 [Example 90]
Emax (AXOR109): 51 to 75%
pEC50 (AXOR109): 6.00 to 6.90

Compound: COc1ccc(S(=O)(=O)N2CCCCC(N(C)S(=O)(=O)c3ccc(OC)c(OC)c3)C2)cc1OC (stereo not drawn) [Example 92]
Emax (AXOR109): 51 to 75%
pEC50 (AXOR109): 5.00 to 5.90

Compound: CCN(C1CCCN(S(=O)(=O)c2ccc(OC)c(OC)c2)C1)S(=O)(=O)c1ccc(OC)c(OC)c1 (stereo not drawn) [Example 93, N-(1-{[3,4-bis(methyloxy)phenyl]sulfonyl}-3-piperidinyl)-N-ethyl-3,4-bis(methyloxy)benzenesulfonamide]
Emax (AXOR109): 51 to 75%
pEC50 (AXOR109): 5.00 to 5.90

Compound: COc1ccc(S(=O)(=O)N(C)C[C@@H]2CCCN2S(=O)(=O)c2ccc(OC)c(OC)c2)cc1OC [Example 94, N-[((2S)-1-{[3,4-bis(methyloxy)phenyl]sulfonyl}-2-pyrrolidinyl)methyl]-N-methyl-3,4-bis(methyloxy)benzenesulfonamide]
Emax (AXOR109): 76 to 100%
pEC50 (AXOR109): 5.00 to 5.90

Compound: CCCN(C[C@H]1CCCN1S(=O)(=O)c1ccc(OC)c(OC)c1)S(=O)(=O)c1ccc(OC)c(OC)c1 [Example 99, N-[((2R)-1-{[3,4-bis(methyloxy)phenyl]sulfonyl}-2-pyrrolidinyl)methyl]-3,4-bis(methyloxy)-N-propylbenzenesulfonamide]
Emax (AXOR109): 76 to 100%
pEC50 (AXOR109): > 6.90

Compound: COc1ccc(S(=O)(=O)N(C[C@H]2CCCN2S(=O)(=O)c2ccc(OC)c(OC)c2)C(C)C)cc1OC [Example 100, N-[((2R)-1-{[3,4-bis(methyloxy)phenyl]sulfonyl}-2-pyrrolidinyl)methyl]-N-(1-methylethyl)-3,4-bis(methyloxy)benzenesulfonamide]
Emax (AXOR109): > 100%
pEC50 (AXOR109): 6.00 to 6.90

Next, values leading:

Emax (AXOR109): 76 to 100%
pEC50 (AXOR109): 6.00 to 6.90
Compound: COc1ccc(S(=O)(=O)N2CCN(S(=O)(=O)c3ccc(OC)c(OC(F)(F)F)c3)CC2)cc1OC [Example 91]

Emax (AXOR109): 76 to 100%
pEC50 (AXOR109): 6.00 to 6.90
Compound: CCN(C[C@@H]1CCCN1S(=O)(=O)c1ccc(OC)c(OC)c1)S(=O)(=O)c1ccc(OC)c(OC)c1 [Example 95, N-[((2S)-1-{[3,4-bis(methyloxy)phenyl]sulfonyl}-2-pyrrolidinyl)methyl]-N-ethyl-3,4-bis(methyloxy)benzenesulfonamide]

Emax (AXOR109): 76 to 100%
pEC50 (AXOR109): 6.00 to 6.90
Compound: CCCN(C[C@@H]1CCCN1S(=O)(=O)c1ccc(OC)c(OC)c1)S(=O)(=O)c1ccc(OC)c(OC)c1 [Example 96, N-[((2S)-1-{[3,4-bis(methyloxy)phenyl]sulfonyl}-2-pyrrolidinyl)methyl]-3,4-bis(methyloxy)-N-propylbenzenesulfonamide]

Emax (AXOR109): 76 to 100%
pEC50 (AXOR109): > 6.90
Compound: COc1ccc(S(=O)(=O)N(C)C[C@H]2CCCN2S(=O)(=O)c2ccc(OC)c(OC)c2)cc1OC [Example 97, N-[((2R)-1-{[3,4-bis(methyloxy)phenyl]sulfonyl}-2-pyrrolidinyl)methyl]-N-methyl-3,4-bis(methyloxy)benzenesulfonamide]

Emax (AXOR109): 76 to 100%
pEC50 (AXOR109): > 6.90
Compound: CCN(C[C@H]1CCCN1S(=O)(=O)c1ccc(OC)c(OC)c1)S(=O)(=O)c1ccc(OC)c(OC)c1 [Example 98, N-[((2R)-1-{[3,4-bis(methyloxy)phenyl]sulfonyl}-2-pyrrolidinyl)methyl]-N-ethyl-3,4-bis(methyloxy)benzenesulfonamide]
